Data as given in US6376670B1, “Quinoline-indole antimicrobial agents, uses and compositions related thereto” (Sepracor Inc., priority 1997, dated 2002).
In brackets after ≈: the same amount, converted by molar mass. Like-named read-outs stand apart in the source and are kept apart here.

Legend:
Experiment in all cases: Determination of MIC values (BHI broth, 96 well microtiter plate)
Assay type in all cases: cell-based
[1] = test system: Streptococcus pneumoniae; conditions: Streptococcus pneumoniae, BHI broth, read-out: MIC S. pneu
Method in brief: (§1)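 Compounds were serially diluted 1:2 in DMSO and added 1:100 to BHI broth to final 25–0.39 µg/mL plus a no-compound control. Wells received an inoculum of 10^5 to 10^6 cells/mL from a 0.5 McFarland culture and were incubated overnight (about 16 hours) at 37° C under 7-10% CO2. MIC is the lowest concentration without visible growth.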

[2] = test system: vancomycin-resistant Enterococcus spp. (VRE); conditions: Enterococcus, VRE, BHI broth, read-out: MIC VREF
Method in brief: as §1

[3] = test system: methicillin-resistant Staphylococcus aureus (MRSA); conditions: Staphylococcus aureus, MRSA, BHI broth, read-out: MIC MRSA
Method in brief: as §1

[4] = 37° C., overnight (about 16 hours)
[5] = 16 h, 37° C., overnight (about 16 hours)

MIC ([1]; S. pneu, overnight 37° C.) [µg/mL] | MIC ([2]; VREF, overnight 37° C.) [µg/mL] | MIC ([3]; overnight 37° C.) [µg/mL] | Compound | other results
< 7 | < 7 | < 7 | Cn1cc(-c2cc(C(=O)NCc3cccc(CN)c3)c3cc(I)ccc3n2)c2cc(Br)ccc21 [Example 356] | –
– | – | – | Clc1ccc2nc(-c3c[nH]c4ccc(OCc5ccccc5)cc34)ccc2c1 [Example 194] | MIC [1, 4]: < 7 µg/mL; MIC [2, 5]: > 25 µg/mL; MIC [3, 5]: < 7 µg/mL
< 7 | < 7 | < 7 | NCc1cccc(CNC(=O)c2cc(-c3c[nH]c4ccc(Br)cc34)nc3c(F)cccc23)c1 [Example 257] | –
> 25 | > 25 | > 25 | O=[N+]([O-])c1cccc2nc(-c3c[nH]c4ccc(Br)cc34)ccc12 [Example 387] | –
– | – | – | NCCCCCCNC(=O)c1cc(-c2c[nH]c3ccc(Br)cc23)nc2ccc(I)cc12 [Example 111] | MIC [1, 4]: < 7 µg/mL; MIC [2, 5]: < 7 µg/mL; MIC [3, 5]: < 7 µg/mL
< 7 | > 25 | < 7 | Clc1ccc2nc(-c3c[nH]c4cc(Cl)ccc34)ccc2c1 [Example 202] | –
< 7 | < 7 | < 7 | Cn1cc(-c2cc(C(=O)NCC3CCCC(CN)C3)c3cc(Cl)ccc3n2)c2cc(Br)ccc21 (stereo not drawn) [Example 369] | –
< 7 | < 7 | < 7 | Cn1cc(-c2cc(C(=O)NCC3CCC(CN)CC3)c3cc(I)ccc3n2)c2cc(Br)ccc21 (stereo not drawn) [Example 357] | –
– | – | – | O=C(O)c1ccc2[nH]cc(-c3cc(C(=O)O)c4ccccc4n3)c2c1 [Example 76] | MIC [1, 4]: > 25 µg/mL; MIC [2, 5]: > 25 µg/mL; MIC [3, 5]: > 25 µg/mL
< 7 | < 7 | < 7 | NCCNC(=O)c1cc(-c2c[nH]c3ccc(Br)cc23)nc2cc(F)ccc12 [Example 321] | –
> 25 | > 25 | > 25 | COc1ccc2[nH]cc(-c3ccc4cc(Cl)ccc4n3)c2c1 [Example 290] | –
– | – | – | NC1CCC(NC(=O)c2cc(-c3c[nH]c4ccc(Br)cc34)nc3ccc(I)cc23)CC1 (stereo not drawn) [Example 113] | MIC [1, 4]: < 7 µg/mL; MIC [2, 5]: < 7 µg/mL; MIC [3, 5]: < 7 µg/mL
< 7 | < 7 | < 7 | NCCNC(=O)c1cc(-c2c[nH]c3ccc(Cl)cc23)nc2ccc(Br)cc12 [Example 313] | –
– | – | – | NCCNC(=O)c1cc(-c2c[nH]c3ccc(Br)cc23)nc2cc(Cl)ccc12 [Example 487] | MIC ([1]; 37° C., about 16 hours): < 7 µg/mL; MIC ([2]; 16 h, 37° C., about 16 hours): < 7 µg/mL; MIC ([3]; 16 h, 37° C., about 16 hours): < 7 µg/mL
< 7 | < 7 | < 25 | Cn1cc(-c2cc(C(=O)NCc3ccc(CN)cc3)c3cc(C#CCNCCc4ccc(Cl)cc4)ccc3n2)c2cc(Br)ccc21 [Example 390] | –
< 7 | < 7 | < 7 | NCc1ccc(CNC(=O)c2cc(-c3c[nH]c4ccc(Br)cc34)nc3cc(C#CCN4CC=CCC4)ccc23)cc1 [Example 304] | –
– | – | – | Cc1ccc2nc(-c3c[nH]c4ccc(O)cc34)ccc2c1 [Example 468] | MIC ([1]; 37° C., about 16 hours): > 25 µg/mL; MIC ([2]; 16 h, 37° C., about 16 hours): > 25 µg/mL; MIC ([3]; 16 h, 37° C., about 16 hours): 25 µg/mL (≈ 91.1 µM)
– | – | – | NCc1ccc(CNC(=O)c2cc(-c3c[nH]c4ccccc34)nc3ccc(I)cc23)cc1 [Example 159] | MIC [1, 4]: < 25 µg/mL; MIC [2, 5]: < 25 µg/mL; MIC [3, 5]: < 7 µg/mL
– | – | – | Clc1cc(-c2c[nH]c3ccccc23)nc2ccccc12 [Example 451] | MIC ([1]; 37° C., about 16 hours): < 7 µg/mL; MIC ([2]; 16 h, 37° C., about 16 hours): > 25 µg/mL; MIC ([3]; 16 h, 37° C., about 16 hours): < 7 µg/mL
< 7 | < 7 | < 7 | OCc1cc(-c2c[nH]c3ccc(Br)cc23)nc2cc(Br)ccc12 [Example 335] | –
– | – | – | COc1ccc2[nH]cc(-c3ccc4cc(Cl)ccc4n3)c2c1 [Example 195] | MIC [1, 4]: > 25 µg/mL; MIC [2, 5]: > 25 µg/mL; MIC [3, 5]: > 25 µg/mL
< 25 | < 25 | < 25 | NCc1ccc(CNC(=O)c2cc(-c3c[nH]c4c(Cl)cccc34)nc3ccccc23)cc1 [Example 260] | –
– | – | – | N#CCc1cc(-c2c[nH]c3ccc(Br)cc23)nc2cc(Cl)ccc12 [Example 522] | MIC ([1]; 37° C., about 16 hours): < 7 µg/mL; MIC ([2]; 16 h, 37° C., about 16 hours): < 25 µg/mL; MIC ([3]; 16 h, 37° C., about 16 hours): < 7 µg/mL
– | – | – | NCCCCNC(=O)c1cc(-c2c[nH]c3cc(F)ccc23)nc2cc(F)ccc12 [Example 496] | MIC ([1]; 37° C., about 16 hours): < 25 µg/mL; MIC ([2]; 16 h, 37° C., about 16 hours): > 25 µg/mL; MIC ([3]; 16 h, 37° C., about 16 hours): < 25 µg/mL
– | – | – | Cc1[nH]c2ccc(Cl)cc2c1-c1cc(Cl)c2ccccc2n1 [Example 465] | MIC ([1]; 37° C., about 16 hours): < 7 µg/mL; MIC ([2]; 16 h, 37° C., about 16 hours): < 25 µg/mL; MIC ([3]; 16 h, 37° C., about 16 hours): < 7 µg/mL
< 7 | < 7 | < 7 | NCc1cccc(CNC(=O)c2cc(-c3c[nH]c4ccc(Br)cc34)nc3cc(Cl)cc(Cl)c23)c1 [Example 246] | –
– | – | – | NCc1ccc(CNC(=O)c2cc(-c3c[nH]c4ccc(Br)cc34)nc3cc4c(cc23)OCO4)cc1 [Example 144] | MIC [1, 4]: < 25 µg/mL; MIC [2, 5]: < 25 µg/mL; MIC [3, 5]: < 7 µg/mL
